According to patent publication EP4796557A1, “POLYPEPTIDE, BIOACTIVE CONJUGATE, AND PREPARATION METHOD THEREFOR AND USE THEREOF” (priority 2023, dated 2025):
Numbered stars: 1 amine (or outer) side, 2 acyl side, 3 side chain; on linkers, the order of the positions; unused ones are H or OH. Square brackets hold non-standard residues; d marks the D form. Peptide text beside a SMILES is read from it. Cit = NC(=O)NCCC[C@H](N)C(=O)O; X1 = CN(C)CC(N[*:1])C(=O)[*:2]

Legend:
MMP2 = molecular target: T1, MMP2 (Homo sapiens, UniProt P08253); assay: Enzymolysis assay of polypeptides by MMP2 (RP-HPLC); assay type: biochemical; details: test polypeptide 100 µmol, activated MMP2, 37°C, 4 h
T1 sequence (P08253 110-660): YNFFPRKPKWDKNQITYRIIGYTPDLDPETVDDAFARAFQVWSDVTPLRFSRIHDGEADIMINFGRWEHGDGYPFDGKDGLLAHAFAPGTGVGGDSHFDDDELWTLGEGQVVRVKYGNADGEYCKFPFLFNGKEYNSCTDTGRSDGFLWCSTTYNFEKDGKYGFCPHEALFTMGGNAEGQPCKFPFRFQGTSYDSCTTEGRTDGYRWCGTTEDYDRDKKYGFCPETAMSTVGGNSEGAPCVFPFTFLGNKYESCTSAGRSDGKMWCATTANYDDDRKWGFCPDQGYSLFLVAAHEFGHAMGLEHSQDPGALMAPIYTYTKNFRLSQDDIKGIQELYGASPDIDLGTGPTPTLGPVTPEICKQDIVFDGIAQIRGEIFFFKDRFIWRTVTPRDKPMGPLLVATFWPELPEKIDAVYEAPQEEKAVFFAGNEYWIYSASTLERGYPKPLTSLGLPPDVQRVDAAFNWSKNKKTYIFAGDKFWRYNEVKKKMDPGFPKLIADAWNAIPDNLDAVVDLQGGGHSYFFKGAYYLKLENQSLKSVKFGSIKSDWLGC
Experimental: (§1) First, MMP2 or MMP9 enzyme solution having a final concentration of 200 µg/mL was mixed with 4 mM APMA at a ratio of 1:1, placed in a 37°C water bath and incubated for 24 h to activate the MMP2 or MMP9 enzyme solution. Subsequently, the test polypeptide having a final concentration of 100 µmol was incubated with the activated MMP2 or MMP9 enzyme solution in a 37°C water bath for 4 h. After the reaction was complete, an equal volume of acetonitrile solution was added thereto, followed by RP-HPLC analysis.
(§2) The enzymolysis efficiency of the polypeptide was calculated based on the peak areas of the target peak before and after enzymolysis. The formula is as follows: Enzymolysis efficiency = […] [formula]

MMP9 = MMP9 (Homo sapiens, UniProt P14780); assay: Enzymolysis assay of polypeptides by MMP9 (RP-HPLC); assay type: biochemical; details: polypeptide 100 µmol with activated MMP9, 37°C, 4 h, RP-HPLC peak areas
MMP9, sequence (P14780 107-707 limits assumed, species assumed): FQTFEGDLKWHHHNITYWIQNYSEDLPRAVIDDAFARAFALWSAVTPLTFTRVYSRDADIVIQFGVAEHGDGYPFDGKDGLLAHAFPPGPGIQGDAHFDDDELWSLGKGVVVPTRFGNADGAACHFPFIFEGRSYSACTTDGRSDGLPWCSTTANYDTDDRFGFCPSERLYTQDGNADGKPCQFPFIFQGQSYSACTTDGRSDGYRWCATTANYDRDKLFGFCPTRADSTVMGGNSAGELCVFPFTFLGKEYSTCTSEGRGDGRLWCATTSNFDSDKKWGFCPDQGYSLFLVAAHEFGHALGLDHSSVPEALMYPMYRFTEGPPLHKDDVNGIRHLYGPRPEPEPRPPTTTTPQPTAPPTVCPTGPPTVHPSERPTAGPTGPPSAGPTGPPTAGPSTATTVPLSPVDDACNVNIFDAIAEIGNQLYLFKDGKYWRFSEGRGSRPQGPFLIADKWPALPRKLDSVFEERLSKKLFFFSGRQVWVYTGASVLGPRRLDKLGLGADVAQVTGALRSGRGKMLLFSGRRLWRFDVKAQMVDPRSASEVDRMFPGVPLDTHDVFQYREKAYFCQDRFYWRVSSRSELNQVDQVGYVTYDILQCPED
Experimental: as §1, §2

Compound	Enzymolysis efficiency (%) (MMP2)	Enzymolysis efficiency (%) (MMP9)
CC(=O)N[C@@H](Cc1c[nH]cn1)C(=O)N1CCC[C@H]1C(=O)N[C@@H](CCCNC(=N)N)C(=O)N[C@@H](CC(N)=O)C(=O)N[C@@H](CC(C)C)C(=O)N[C@H](C(=O)N[C@@H](CCCNC(N)=O)C(N)=O)C(C)C [Compound 2-P15] (Ac-HPRNLV[Cit]-NH2)	63.27	94.69
CC(=O)N[C@@H](Cc1c[nH]cn1)C(=O)N1CCC[C@H]1C(=O)N[C@@H](CCCNC(N)=O)C(=O)NCC(=O)N[C@@H](CC(C)C)C(=O)N[C@H](C(=O)N[C@@H](CCCNC(N)=O)C(N)=O)C(C)C [Compound 2-P16] (Ac-HP[Cit]GLV[Cit]-NH2)	53.54	64.81
CC(=O)N[C@@H](Cc1c[nH]cn1)C(=O)N1CCC[C@H]1C(=O)N[C@@H](CCCNC(N)=O)C(=O)N1CCC[C@H]1C(=O)N[C@@H](CC(C)C)C(=O)N[C@H](C(=O)N[C@@H](CCCNC(N)=O)C(N)=O)C(C)C [Compound 2-P17] (Ac-HP[Cit]PLV[Cit]-NH2)	42.87	48.98
CC(=O)N[C@@H](CO)C(=O)N1CCC[C@H]1C(=O)N[C@@H](CCCNC(=N)N)C(=O)NCC(=O)N[C@@H](CC(C)C)C(=O)N[C@H](C(=O)N[C@@H](CCCNC(N)=O)C(N)=O)C(C)C [Compound 2-P18] (Ac-SPRGLV[Cit]-NH2)	86.03	93.84
CC(=O)N[C@@H](CO)C(=O)N1CCC[C@H]1C(=O)N[C@@H](CCCNC(=N)N)C(=O)N[C@@H](CO)C(=O)N[C@@H](CC(C)C)C(=O)N[C@H](C(=O)N[C@@H](CCCNC(N)=O)C(N)=O)C(C)C [Compound 2-P19] (Ac-SPRSLV[Cit]-NH2)	55.76	79.26
CC(=O)N[C@@H](CO)C(=O)N1CCC[C@H]1C(=O)N[C@@H](CCCNC(=N)N)C(=O)N1CCC[C@H]1C(=O)N[C@@H](CC(C)C)C(=O)N[C@H](C(=O)N[C@@H](CCCNC(N)=O)C(N)=O)C(C)C [Compound 2-P20] (Ac-SPRPLV[Cit]-NH2)	52.52	57.87
CC(=O)N[C@@H](CO)C(=O)N1CCC[C@H]1C(=O)N[C@@H](CCCNC(=N)N)C(=O)N[C@@H](CC(N)=O)C(=O)N[C@@H](CC(C)C)C(=O)N[C@H](C(=O)N[C@@H](CCCNC(N)=O)C(N)=O)C(C)C [Compound 2-P21] (Ac-SPRNLV[Cit]-NH2)	70.46	95.84
CC(=O)N[C@@H](CO)C(=O)N1CCC[C@H]1C(=O)N[C@@H](CCCNC(N)=O)C(=O)NCC(=O)N[C@@H](CC(C)C)C(=O)N[C@H](C(=O)N[C@@H](CCCNC(N)=O)C(N)=O)C(C)C [Compound 2-P22] (Ac-SP[Cit]GLV[Cit]-NH2)	55.25	73.74
CC(=O)N[C@@H](CO)C(=O)N1CCC[C@H]1C(=O)N[C@@H](CCCNC(N)=O)C(=O)N[C@@H](CO)C(=O)N[C@@H](CC(C)C)C(=O)N[C@H](C(=O)N[C@@H](CCCNC(N)=O)C(N)=O)C(C)C [Compound 2-P23] (Ac-SP[Cit]SLV[Cit]-NH2)	33.63	59.39
CC(=O)N[C@@H](CO)C(=O)N1CCC[C@H]1C(=O)N[C@@H](CCCNC(N)=O)C(=O)N1CCC[C@H]1C(=O)N[C@@H](CC(C)C)C(=O)N[C@H](C(=O)N[C@@H](CCCNC(N)=O)C(N)=O)C(C)C [Compound 2-P24] (Ac-SP[Cit]PLV[Cit]-NH2)	45.97	38.72
CC(=O)NCC(=O)N1CCC[C@H]1C(=O)N[C@@H](C)C(=O)N1CCC[C@H]1C(=O)N[C@@H](CC(C)C)C(=O)N[C@H](C(=O)N[C@@H](CCCNC(N)=O)C(N)=O)C(C)C [Compound 2-P25] (Ac-GPAPLV[Cit]-NH2)	85.08	45.37
CC(=O)NCC(=O)N1CCC[C@H]1C(=O)N[C@@H](C)C(=O)N[C@@H](CC(N)=O)C(=O)N[C@@H](CC(C)C)C(=O)N[C@H](C(=O)N[C@@H](CCCNC(N)=O)C(N)=O)C(C)C [Compound 2-P26] (Ac-GPANLV[Cit]-NH2)	100.00	84.35
CC(=O)NCC(=O)N1CCC[C@H]1C(=O)N[C@@H](CCCNC(=N)N)C(=O)NCC(=O)NC(CN(C)C)C(=O)N[C@H](C(=O)N[C@@H](CCCNC(N)=O)C(N)=O)C(C)C (some centres unmarked) [Compound 2-P27] (Ac-GPRG[X1]V[Cit]-NH2)	9.00	10.53
Ac-GPAALGGFG-NH2 [Compound 1-P24]	96.89	37.13
Ac-GPAGLGGFG-NH2 [Compound 1-P19]	89.82	29.28
Ac-GPASLGGFG-NH2 [Compound 1-P18]	68.38	9.10
Ac-GPLGLGGFG-NH2 [Compound 1-P21]	90.43	75.60
Ac-GPLSLGGFG-NH2 [Compound 1-P17]	37.27	27.26
Ac-GPQGLGGFG-NH2 [Compound 1-P20]	51.36	32.62
Ac-GPRGLGGFG-NH2 [Compound 1-P23]	89.54	84.66
Ac-GPSALGGFG-NH2 [Compound 1-P25]	83.12	38.53
Ac-GPSGLGGFG-NH2 [Compound 1-P22]	82.72	37.81
Ac-HVLNLGGFG-NH2 [Compound 1-P14]	11.78	4.86
Ac-IPVSLGGFG-NH2 [Compound 1-P16]	13.02	13.30
Ac-VPLSLGGFG-NH2 [Compound 1-P15]	40.90	33.25
